Data published in patent US6358885B1, “Substituted phenylheterocyclic herbicides” (Mississippi State University, priority 1992, dated 2002).

Legend:
barnyardgrass = assay: Test B preemergence/postemergence greenhouse plant response rating 0 to 10; assay type: in vivo, Echinochloa crus-galli; settings: 0 to 10 scale
How it was run: (§1)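 Both application timings were run together: seeds got compound preemergence, and established seedlings (two to eighteen cm) got it postemergence. Non-phytotoxic solvent carried the chemical. Ratings are visual, versus controls, at twelve to sixteen days.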

cheatgrass = assay: as above; assay type: in vivo, Bromus secalinus; settings: 0 to 10 scale
How it was run: as §1

chickweed = assay: as above; assay type: in vivo, Stellaria media; settings: 0 to 10 scale
How it was run: as §1

corn = assay: as above; assay type: in vivo, Zea mays; settings: 0 to 10 scale
How it was run: as §1

crabgrass = assay: as above; assay type: in vivo, Digitaria spp.; settings: 0 to 10 scale
How it was run: as §1

giant foxtail = assay: as above; assay type: in vivo, Setaria faberii; settings: 0 to 10 scale
How it was run: as §1

morningglory [1] = assay: as above; assay type: in vivo, Ipomoea hederacea; settings: 0 to 10 scale
How it was run: as §1

rape = assay: as above; assay type: in vivo, Brassica napus; settings: 0 to 10 scale
How it was run: as §1

velvetleaf = assay: as above; assay type: in vivo, Abutilon theophrasti; settings: 0 to 10 scale
How it was run: as §1

barley = assay: Test C preemergence/postemergence greenhouse plant response rating 0 to 100; assay type: in vivo, Hordeum vulgare; settings: POSTEMERGENCE; for Plant response rating Barley Igri: 0 to 100 scale
How it was run: (§2)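 Compounds in non-phytotoxic solvent applied preemergence to sandy loam one day after planting, postemergence at the 1–4 leaf stage, or to ~2.5 cm floodwater over silt loam.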

lambsquarters = assay: as above; assay type: in vivo, Chenopodium album; settings: POSTEMERGENCE; for Plant response rating Lambsquarters: 0 to 100 scale
How it was run: as §2

morningglory [2] = assay: as above; assay type: in vivo, Ipomoea hederacea; settings: POSTEMERGENCE; for Plant response rating, Morningglory: 0 to 100 scale
How it was run: as §2

soybean = assay: as above; assay type: in vivo, Glycine max; settings: POSTEMERGENCE; for Plant response rating, Soybean: 0 to 100 scale
How it was run: as §2

## Fc1cc(Cl)c(OCCCl)cc1-c1nn2c(c1Cl)CCCC2 [Compound 49]
barnyardgrass; POSTEMERGENCE, Rate 50 g/ha
  Plant response rating, Barnyardgrass: 3
barnyardgrass; POSTEMERGENCE, Rate 200 g/ha
  Plant response rating, Barnyardgrass: 7
barnyardgrass; PREEMERGENCE, Rate 50 g/ha
  Plant response rating, Barnyardgrass: 0
barnyardgrass; Rate 200 g/ha, PREEMERGENCE
  Plant response rating, Barnyardgrass: 5
cheatgrass; POSTEMERGENCE, Rate 50 g/ha
  Plant response rating, Cheatgrass: 4
cheatgrass; POSTEMERGENCE, Rate 200 g/ha
  Plant response rating, Cheatgrass: 7
cheatgrass; PREEMERGENCE, Rate 50 g/ha
  Plant response rating, Cheatgrass: 0
cheatgrass; Rate 200 g/ha, PREEMERGENCE
  Plant response rating, Cheatgrass: 2
chickweed; POSTEMERGENCE, Rate 50 g/ha
  Plant response rating, Chickweed: 7
chickweed; POSTEMERGENCE, Rate 200 g/ha
  Plant response rating, Chickweed: 9
chickweed; PREEMERGENCE, Rate 50 g/ha
  Plant response rating, Chickweed: 0
chickweed; Rate 200 g/ha, PREEMERGENCE
  Plant response rating, Chickweed: 8
corn; POSTEMERGENCE, Rate 50 g/ha
  Plant response rating, Corn: 3
corn; POSTEMERGENCE, Rate 200 g/ha
  Plant response rating, Corn: 4
corn; PREEMERGENCE, Rate 50 g/ha
  Plant response rating, Corn: 0
corn; Rate 200 g/ha, PREEMERGENCE
  Plant response rating, Corn: 2
crabgrass; POSTEMERGENCE, Rate 50 g/ha
  Plant response rating, Crabgrass: 4
crabgrass; PREEMERGENCE, Rate 50 g/ha
  Plant response rating, Crabgrass: 0
crabgrass; Rate 200 g/ha, PREEMERGENCE
  Plant response rating, Crabgrass: 5
Giant foxtail; POSTEMERGENCE, Rate 50 g/ha
  Plant response rating, Giant foxtail: 4
Giant foxtail; PREEMERGENCE, Rate 50 g/ha
  Plant response rating, Giant foxtail: 4
Giant foxtail; Rate 200 g/ha, POSTEMERGENCE
  Plant response rating, Giant foxtail: 6
Giant foxtail; Rate 200 g/ha, PREEMERGENCE
  Plant response rating, Giant foxtail: 10
Morningglory [1]; POSTEMERGENCE, Rate 50 g/ha
  Plant response rating, Morningglory: 10
Morningglory [1]; PREEMERGENCE, Rate 50 g/ha
  Plant response rating, Morningglory: 1
Morningglory [1]; Rate 200 g/ha, POSTEMERGENCE
  Plant response rating, Morningglory: 10
Morningglory [1]; Rate 200 g/ha, PREEMERGENCE
  Plant response rating, Morningglory: 6
rape; POSTEMERGENCE, Rate 50 g/ha
  Plant response rating, Rape: 7
rape; PREEMERGENCE, Rate 50 g/ha
  Plant response rating, Rape: 1
rape; Rate 200 g/ha, POSTEMERGENCE
  Plant response rating, Rape: 6
rape; Rate 200 g/ha, PREEMERGENCE
  Plant response rating, Rape: 6
velvetleaf; POSTEMERGENCE, Rate 50 g/ha
  Plant response rating, Velvetleaf: 9
velvetleaf; PREEMERGENCE, Rate 50 g/ha
  Plant response rating, Velvetleaf: 0
velvetleaf; Rate 200 g/ha, POSTEMERGENCE
  Plant response rating, Velvetleaf: 10
velvetleaf; Rate 200 g/ha, PREEMERGENCE
  Plant response rating, Velvetleaf: 1
barley; 62 g/ha
  Plant response rating Barley Igri: 40
barley; 250 g/ha
  Plant response rating Barley Igri: 60
barley; Rate 4 g/ha
  Plant response rating (0 to 100), Barley Igri: 10
barley; Rate 16 g/ha
  Plant response rating (0 to 100), Barley Igri: 20
lambsquarters; 62 g/ha
  Plant response rating Lambsquarters: 100
lambsquarters; 250 g/ha
  Plant response rating Lambsquarters: 100
lambsquarters; Rate 4 g/ha
  Plant response rating (0 to 100), Lambsquarters: 100
lambsquarters; Rate 16 g/ha
  Plant response rating (0 to 100), Lambsquarters: 100
Morningglory [2]; 62 g/ha
  Plant response rating, Morningglory: 100
Morningglory [2]; 250 g/ha
  Plant response rating, Morningglory: 100
Morningglory [2]; Rate 4 g/ha
  Plant response rating (0 to 100), Morningglory: 40
Morningglory [2]; Rate 16 g/ha
  Plant response rating (0 to 100), Morningglory: 50
soybean; 62 g/ha
  Plant response rating, Soybean: 70
soybean; 250 g/ha
  Plant response rating, Soybean: 80
soybean; Rate 4 g/ha
  Plant response rating (0 to 100), Soybean: 40
soybean; Rate 16 g/ha
  Plant response rating (0 to 100), Soybean: 50

## C#CC(C)N1C(=O)COc2cc(F)c(-c3nn4c(c3Cl)CCCC4)cc21 (stereo not drawn) [Compound 50]
barnyardgrass; POSTEMERGENCE, Rate 10 g/ha
  Plant response rating, Barnyardgrass: 3
barnyardgrass; POSTEMERGENCE, Rate 50 g/ha
  Plant response rating, Barnyardgrass: 4
barnyardgrass; PREEMERGENCE, Rate 10 g/ha
  Plant response rating, Barnyardgrass: 0
barnyardgrass; PREEMERGENCE, Rate 50 g/ha
  Plant response rating, Barnyardgrass: 0
cheatgrass; POSTEMERGENCE, Rate 10 g/ha
  Plant response rating, Cheatgrass: 5
cheatgrass; POSTEMERGENCE, Rate 50 g/ha
  Plant response rating, Cheatgrass: 6
cheatgrass; PREEMERGENCE, Rate 10 g/ha
  Plant response rating, Cheatgrass: 2
cheatgrass; PREEMERGENCE, Rate 50 g/ha
  Plant response rating, Cheatgrass: 3
chickweed; POSTEMERGENCE, Rate 10 g/ha
  Plant response rating, Chickweed: 9
chickweed; POSTEMERGENCE, Rate 50 g/ha
  Plant response rating, Chickweed: 10
chickweed; PREEMERGENCE, Rate 10 g/ha
  Plant response rating, Chickweed: 0
chickweed; PREEMERGENCE, Rate 50 g/ha
  Plant response rating, Chickweed: 10
corn; POSTEMERGENCE, Rate 10 g/ha
  Plant response rating, Corn: 3
corn; POSTEMERGENCE, Rate 50 g/ha
  Plant response rating, Corn: 4
corn; PREEMERGENCE, Rate 50 g/ha
  Plant response rating, Corn: 0
crabgrass; POSTEMERGENCE, Rate 10 g/ha
  Plant response rating, Crabgrass: 3
crabgrass; POSTEMERGENCE, Rate 50 g/ha
  Plant response rating, Crabgrass: 4
crabgrass; PREEMERGENCE, Rate 10 g/ha
  Plant response rating, Crabgrass: 0
crabgrass; PREEMERGENCE, Rate 50 g/ha
  Plant response rating, Crabgrass: 0
Giant foxtail; POSTEMERGENCE, Rate 10 g/ha
  Plant response rating, Giant foxtail: 4
Giant foxtail; POSTEMERGENCE, Rate 50 g/ha
  Plant response rating, Giant foxtail: 4
Giant foxtail; PREEMERGENCE, Rate 10 g/ha
  Plant response rating, Giant foxtail: 0
Giant foxtail; PREEMERGENCE, Rate 50 g/ha
  Plant response rating, Giant foxtail: 3
Morningglory [1]; POSTEMERGENCE, Rate 10 g/ha
  Plant response rating, Morningglory: 10
Morningglory [1]; POSTEMERGENCE, Rate 50 g/ha
  Plant response rating, Morningglory: 10
Morningglory [1]; PREEMERGENCE, Rate 50 g/ha
  Plant response rating, Morningglory: 2
rape; POSTEMERGENCE, Rate 10 g/ha
  Plant response rating, Rape: 9
rape; POSTEMERGENCE, Rate 50 g/ha
  Plant response rating, Rape: 10
rape; PREEMERGENCE, Rate 50 g/ha
  Plant response rating, Rape: 8
velvetleaf; POSTEMERGENCE, Rate 10 g/ha
  Plant response rating, Velvetleaf: 9
velvetleaf; POSTEMERGENCE, Rate 50 g/ha
  Plant response rating, Velvetleaf: 10
velvetleaf; PREEMERGENCE, Rate 50 g/ha
  Plant response rating, Velvetleaf: 0
barley; 62 g/ha
  Plant response rating Barley Igri: 40
barley; 250 g/ha
  Plant response rating Barley Igri: 50
barley; Rate 1 g/ha
  Plant response rating (0 to 100), Barley Igri: 0
barley; Rate 4 g/ha
  Plant response rating (0 to 100), Barley Igri: 20
barley; Rate 16 g/ha
  Plant response rating (0 to 100), Barley Igri: 30
lambsquarters; 62 g/ha
  Plant response rating Lambsquarters: 100
lambsquarters; 250 g/ha
  Plant response rating Lambsquarters: 100
lambsquarters; Rate 4 g/ha
  Plant response rating (0 to 100), Lambsquarters: 100
lambsquarters; Rate 16 g/ha
  Plant response rating (0 to 100), Lambsquarters: 100
Morningglory [2]; 62 g/ha
  Plant response rating, Morningglory: 100
Morningglory [2]; 250 g/ha
  Plant response rating, Morningglory: 100
Morningglory [2]; Rate 1 g/ha
  Plant response rating (0 to 100), Morningglory: 50
Morningglory [2]; Rate 4 g/ha
  Plant response rating (0 to 100), Morningglory: 70
Morningglory [2]; Rate 16 g/ha
  Plant response rating (0 to 100), Morningglory: 100
soybean; 62 g/ha
  Plant response rating, Soybean: 90
soybean; 250 g/ha
  Plant response rating, Soybean: 90
soybean; Rate 1 g/ha
  Plant response rating (0 to 100), Soybean: 40
soybean; Rate 4 g/ha
  Plant response rating (0 to 100), Soybean: 60
soybean; Rate 16 g/ha
  Plant response rating (0 to 100), Soybean: 70
